From patent US20130302282A1, “Inhibitors of Hepatitis C Virus” (priority 2010, published 2013)
Like-named read-outs stand apart in the source and are kept apart here.

System: 1b_Huh-Luc/Neo-ET cell line (bicistronic genotype 1b replicon in Huh 7 cells)
Assay: HCV 1b replicon assay, luciferase readout
Format: cell-based, HCV genotype 1b
Details: Hepatitis C virus
Method: Biological activity of the compounds of the invention was determined using an HCV replicon assay. The 1b_Huh-Luc/Neo-ET cell line persistently expressing a bicistronic genotype 1b replicon in Huh 7 cells was obtained from ReBLikon GMBH. This cell line was used to test compound inhibition using luciferase enzyme activity readout as a measurement of compound inhibition of replicon levels.
On Day 1 (the day after plating), each compound is added in triplicate to the cells. Plates incubated for 72 […] prior to running the luciferase assay. Enzyme activity was measured using a Bright-Glo Kit (cat. number E2620) manufactured by Promega Corporation. The following equation was used to generate a percent control value for each compound.
%Control=(Average Compound Value/Average Control)*100
The EC50 value was determined using GraphPad Prism and the following equation:
Y=Bottom+(Top−Bottom)/(1+10̂((LogIC50−X)*HillSlope))
EC50 values of compounds are repeated several times in the replicon assay.

[1] = Huh-7, class symbol, HCV genotype 1b replicon, read-out: Inhibition of HCV genotype 1b replicon
[2] = Huh-7, 1b_Huh-Luc/Neo-ET cell line, read-out: EC50, half-maximal inhibition of HCV 1b replication

Structure (SMILES): CNC(=O)c1c(-c2ccc(F)cc2)nn2cc3c(cc12)[C@@H](C)CCCN3S(C)(=O)=O (single isomer, unassigned) [Compound B51]
- EC50 [1]: > 1000 nM

Structure (SMILES): CNC(=O)c1c(-c2ccc(F)cc2)nn2cc3c(cc12)[C@H](C)CCCN3S(C)(=O)=O (single isomer, unassigned) [Compound B52]
- EC50 [1]: 100 to 1000 nM

Structure (SMILES): CNC(=O)c1c(-c2ccc(Oc3ccc(F)cc3)cc2)oc2cc3c(cc12)[C@@H](C)CCCN3S(C)(=O)=O (single isomer, unassigned) [Compound B86]
- EC50 [1]: 100 to 1000 nM

Structure (SMILES): CNC(=O)c1c(-c2ccc(F)cc2)oc2cc3c(cc12)[C@H](C)N1CCC[C@@H]1CN3S(C)(=O)=O (single isomer, unassigned) [Compound B131]
- EC50 [2]: ≤ 10 nM
- EC50 [1]: < 10 nM

Structure (SMILES): CNC(=O)c1c(-c2ccc(F)cc2)oc2cc3c(cc12)[C@H]1C[C@H]1CCN3S(C)(=O)=O (single isomer, unassigned) [Compound B133]
- EC50 [1]: > 1000 nM

Structure (SMILES): CNC(=O)c1c(-c2ccc(Oc3ccc(F)cc3)cc2)oc2cc3c(cc12)[C@@H](C)n1nncc1CN3S(C)(=O)=O (single isomer, unassigned) [Compound B164]
- EC50 [2]: 10 to 100 nM
- EC50 [1]: 10 to 100 nM

Structure (SMILES): CNC(=O)c1c(-c2ccc(F)cc2)oc2cc3c(cc12)[C@@H](C)n1nncc1CN3S(C)(=O)=O (single isomer, unassigned) [Compound B170]
- EC50 [2]: 10 to 100 nM
- EC50 [1]: 10 to 100 nM

Structure (SMILES): CNC(=O)c1c(-c2ccc(Oc3ccc(F)cc3)cc2)oc2cc3c(cc12)[C@@H](C)OC(C)(C)CN3S(C)(=O)=O (single isomer, unassigned) [Compound B177]
- EC50 [1]: 100 to 1000 nM

Structure (SMILES): CNC(=O)c1c(-c2ccc(F)cc2)oc2cc3c(cc12)[C@@H](C)N(C)C(=O)CN3S(C)(=O)=O (single isomer, unassigned) [Compound B180]
- EC50 [2]: 10 to 100 nM
- EC50 [1]: 10 to 100 nM

Structure (SMILES): CNC(=O)c1c(-c2ccc(Oc3ccc(F)cc3)cc2)oc2cc3c(cc12)[C@H](C)N(C)C(=O)CN3S(C)(=O)=O (single isomer, unassigned) [Compound B181]
- EC50 [2]: 10 to 100 nM
- EC50 [1]: 10 to 100 nM

Structure (SMILES): CNC(=O)c1c(-c2ccc(Oc3ccc(F)cc3)cc2)oc2cc3c(cc12)[C@@H](C)N(C)C(=O)CN3S(C)(=O)=O (single isomer, unassigned) [Compound B182]
- EC50 [1]: 100 to 1000 nM

Structure (SMILES): CNC(=O)c1c(-c2ccc(F)cc2)oc2cc3c(cc12)[C@@H](C)OC(C)(C)CN3S(C)(=O)=O (single isomer, unassigned) [Compound B185]
- EC50 [1]: > 1000 nM

Structure (SMILES): CNC(=O)c1c(-c2ccc(Oc3ccc(F)cc3)cc2)oc2cc3c(cc12)[C@@H](C)OC1(CC1)CN3S(C)(=O)=O (single isomer, unassigned) [Compound B186]
- EC50 [2]: 10 to 100 nM
- EC50 [1]: 10 to 100 nM

Structure (SMILES): CNC(=O)c1c(-c2ccc(F)cc2)oc2cc3c(cc12)[C@@H](C)OC1(CC1)CN3S(C)(=O)=O (single isomer, unassigned) [Compound B194]
- EC50 [1]: 100 to 1000 nM

Structure (SMILES): CNC(=O)c1c(-c2ccc(F)cc2)oc2cc3c(cc12)[C@H](C)c1ccccc1CN3S(C)(=O)=O (single isomer, unassigned) [Compound B203]
- EC50 [2]: 10 to 100 nM
- EC50 [1]: 10 to 100 nM

Structure (SMILES): CNC(=O)c1c(-c2ccc(F)cc2)oc2cc3c(cc12)[C@@H](C)c1ccccc1CN3S(C)(=O)=O (single isomer, unassigned) [Compound B204]
- EC50 [2]: 10 to 100 nM
- EC50 [1]: 10 to 100 nM

Structure (SMILES): CNC(=O)c1c(-c2ccc(F)cc2)oc2cc3c(cc12)[C@@H](C)NC(=O)CN3S(C)(=O)=O (single isomer, unassigned) [Compound B209]
- EC50 [1]: 100 to 1000 nM

Structure (SMILES): CNC(=O)c1c(-c2ccc(Oc3ccc(F)c(F)c3)cc2)nn2cc3c(cc12)C(C)CCCN3S(C)(=O)=O (centres unmarked) [B97 (3)]
- EC50 (Huh-7, read-out: Inhibition of HCV genotype 1b replicon, class symbol, HCV genotype 1b replicon): 10 to 100 nM

Structure (SMILES): CNC(=O)c1c(-c2ccc(F)cc2)oc2cc3c(cc12)C1(CCN3S(C)(=O)=O)CC1 [Compound B2]
- EC50 [2]: 10 to 100 nM
- EC50 [1]: 10 to 100 nM

Structure (SMILES): CNC(=O)c1c(-c2ccc(F)cc2)oc2cc3c(cc12)CCCCCCN3S(C)(=O)=O [Compound B19]
- EC50 [2]: 10 to 100 nM
- EC50 [1]: 10 to 100 nM

Structure (SMILES): CNC(=O)c1c(-c2ccc(F)cc2)oc2cc3c(cc12)CCCCCN3S(C)(=O)=O [Compound B20]
- EC50 [2]: ≤ 10 nM
- EC50 [1]: < 10 nM
